In the assay the test system is HeLa. Kind of assay: cell viability (CellTiter-Glo) relative to median of lowest-dilution wells of all drugs (fraction); higher = more viable cells. On the procedure: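 HeLa control and CRISPR DDX11 knockout cells were seeded in 384-well plates and incubated for 72 h with each of 64 […] drugs at six concentrations. Viability was read with CellTiter-Glo and normalised to the median of the lowest (6th) dilution wells of all drugs. Two biological replicates (BR1, BR2) are averaged; the concentration unit is not stated.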
In general terms: In ATP-based viability assays light output follows the ATP content of the culture.

Where [1] appears, read: drug concentration (unit not stated): 0.04, genotype: DDX11 knockout.
Where [2] appears, read: drug concentration (unit not stated): 0.04, genotype: control (DDX11 wild type).
The mark [3] stands for this setting: drug concentration (unit not stated): 0.12, genotype: DDX11 knockout.
[4] abbreviates: drug concentration (unit not stated): 0.12, genotype: control (DDX11 wild type).
The mark [5] stands for this setting: drug concentration (unit not stated): 0.37, genotype: DDX11 knockout.
[6] abbreviates: drug concentration (unit not stated): 0.37, genotype: control (DDX11 wild type).
Where [7] appears, read: drug concentration (unit not stated): 1.11, genotype: DDX11 knockout.
Setting [8] is: drug concentration (unit not stated): 1.11, genotype: control (DDX11 wild type).
The mark [9] stands for this setting: drug concentration (unit not stated): 3.33, genotype: DDX11 knockout.
[10] abbreviates: drug concentration (unit not stated): 3.33, genotype: control (DDX11 wild type).
Where [11] appears, read: drug concentration (unit not stated): 10, genotype: DDX11 knockout.
Setting [12] is: drug concentration (unit not stated): 10, genotype: control (DDX11 wild type).
Where [13] appears, read: drug concentration (unit not stated): 0.01, genotype: DDX11 knockout.
[14] abbreviates: drug concentration (unit not stated): 0.01, genotype: control (DDX11 wild type).

Our source for the cell viability values is the supplement of paper PMC8092582.

± gives the standard deviation of the averaged measurements.

`CC(=O)Nc1cccc(-n2c(=O)n(C3CC3)c(=O)c3c(Nc4ccc(I)cc4F)n(C)c(=O)c(C)c32)c1` [Trametinib]: the cell viability reads like this: under setting [1], 0.814 ± 0.081; under setting [2], 0.908 ± 0.2; under setting [3], 0.773 ± 0.058; under setting [4], 0.914 ± 0.18; under setting [5], 0.861 ± 0.12; under setting [6], 0.976 ± 0.28. Moreover, the cell viability by setting is: under setting [7], 0.736 ± 0.17; under setting [8], 0.952 ± 0.31; under setting [9], 0.613 ± 0.23; under setting [10], 0.968 ± 0.34; under setting [11], 0.46 ± 0.03; under setting [12], 0.706 ± 0.17.
For `CC[C@]1(O)C[C@@H]2CN(CCc3c([nH]c4ccccc34)[C@@](C(=O)OC)(c3cc4c(cc3OC)N(C)[C@H]3[C@@](O)(C(=O)OC)[C@H](OC(C)=O)[C@]5(CC)C=CCN6CC[C@]43[C@@H]65)C2)C1` [Vinblastine], the cell viability is 0.751 ± 0.37 under setting [13]; 0.802 ± 0.21 under setting [14]; 0.538 ± 0.36 under setting [1]; 0.799 ± 0.44 under setting [2]; 0.374 ± 0.092 under setting [3]; 0.441 ± 0.2 under setting [4]. Besides, the cell viability runs as follows: under setting [5], 0.392 ± 0.0058; under setting [6], 0.31 ± 0.042; under setting [7], 0.3923 ± 0.00082; under setting [8], 0.355 ± 0.12; under setting [9], 0.401 ± 0.042; under setting [10], 0.359 ± 0.089.
Turning to `CNC(=O)c1cccc(-c2ccc3c(N4CCOC[C@@H]4C)nc(N4CCOC[C@@H]4C)nc3n2)c1` [Vistusertib (AZD2014)], the cell viability reads like this: under setting [1], 0.902 ± 0.082; under setting [2], 0.938 ± 0.15; under setting [3], 0.777 ± 0.13; under setting [4], 0.973 ± 0.3; under setting [5], 0.668 ± 0.16; under setting [6], 0.917 ± 0.29. The cell viability amounted to 0.449 ± 0.081 under setting [7]; 0.637 ± 0.16 under setting [8]; 0.356 ± 0.03 under setting [9]; 0.533 ± 0.17 under setting [10]; 0.344 ± 0.048 under setting [11]; 0.436 ± 0.17 under setting [12].
Take `O=C(CCCCCCC(=O)Nc1ccccc1)NO` [Vorinostat (SAHA)]: the cell viability came out at 1.01 ± 0.075 under setting [13]; 1.03 ± 0.026 under setting [14]; 0.974 ± 0.013 under setting [1]; 0.9673 ± 0.0094 under setting [2]; 0.995 ± 0.052 under setting [3]; 0.971 ± 0.031 under setting [4]. Moreover, the cell viability is, setting by setting: under setting [5], 0.771 ± 0.18; under setting [6], 0.825 ± 0.27; under setting [7], 0.317 ± 0.41; under setting [8], 0.44 ± 0.58.
In the case of `COCC[n+]1c2c(n(Cc3cnccn3)c1C)C(=O)c1ccccc1C2=O` [YM155 (Sepantronium bromide)], the cell viability came out at 0.0145 ± 0.002 under setting [13]; 0.015 ± 0.0031 under setting [14]; 0.0143 ± 0.0008 under setting [1]; 0.0164 ± 0.0034 under setting [2]; 0.0146 ± 0.00021 under setting [3]; 0.0177 ± 0.0016 under setting [4]. Besides, the cell viability reads like this: under setting [5], 0.0135 ± 0.00019; under setting [6], 0.0166 ± 0.0028; under setting [7], 0.0136 ± 0.00081; under setting [8], 0.0158 ± 0.0023.
